# Measurements: PubChem BioAssay (NCI)
#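 In this assay, cells in 96-well plates receive the compound at five concentrations for 48 hours. Endpoints are linearly interpolated between the surrounding concentrations. Abbreviation: GI50, concentration required for 50% inhibition of growth. Definition used: TGI = concentration required for complete inhibition of growth.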
# Columns and labels:
# Assay in all cases: inhibition of tumour cell growth, NCI panel, 48 h
# [1] = test system: M14 melanoma
# [2] = test system: SF-295 CNS
# [3] = test system: SK-MEL-5 melanoma
# [4] = test system: SR leukemia
# [5] = test system: OVCAR-8 ovarian
# [6] = test system: SN12C renal
# [7] = test system: NCI-H460 lung
# [8] = test system: MDA-MB-231 breast
# [9] = test system: SK-MEL-28 melanoma
# [10] = test system: A549 NSCLC
# [11] = test system: HCT-116 colon
# [12] = test system: PC-3 prostate
# [13] = test system: HCT-15 colon
# [14] = test system: HCC-2998 colon
# [15] = test system: HOP-62 NSCLC
# [16] = test system: HOP-92 NSCLC
# [17] = test system: SW-620 colon
# [18] = test system: UACC-62 melanoma
# [19] = test system: OVCAR-5 ovarian
# [20] = test system: OVCAR-4 ovarian
# [21] = test system: T-47D breast
# [22] = test system: SK-MEL-2 melanoma
# [23] = test system: A498 renal
# [24] = test system: NCI-H522 lung
# [25] = test system: HT29 colon
# [26] = test system: U251 CNS
# [27] = test system: LOX IMVI melanoma
# [28] = test system: CAKI-1 renal
# [29] = test system: CCRF-CEM leukemia
# [30] = test system: SF-539 CNS
# [31] = test system: SNB-75 CNS
# [32] = test system: MDA-MB-435
# [33] = test system: HL-60(TB) leukemia
# [34] = test system: HS 578T breast
# [35] = test system: KM12 colon
# [36] = test system: NCI-H226 lung
# [37] = test system: SF-268 CNS
# [38] = test system: UACC-257 melanoma
# [39] = test system: ACHN renal
# [40] = test system: COLO 205 colon
# [41] = test system: K-562 leukemia
# [42] = test system: BT-549 breast
# [43] = test system: UO-31 renal
# [44] = test system: IGROV1 ovarian
# [45] = test system: DU-145 prostate
# [46] = test system: MCF7 breast
# [47] = test system: MOLT-4 leukemia
# [48] = test system: 786-0 renal
# [49] = test system: NCI-H23 lung
# [50] = test system: RXF 393 renal
# [51] = test system: SNB-19 CNS
# [52] = test system: SK-OV-3 ovarian
# [53] = test system: RPMI-8226 leukemia
# [54] = test system: MALME-3M melanoma
# [55] = test system: TK-10 renal
# [56] = test system: NCI/ADR-RES ovarian
# [57] = test system: EKVX NSCLC
smiles,measurement,setting,value
Nn1c(=O)n(-c2cccc(C(F)(F)F)c2)c(=O)c2cc(-c3ccc(F)cc3F)ccc21,GI50,[1],1540 nM
same,TGI,[1],4330 nM
same,GI50,[2],1760 nM
same,TGI,[2],3760 nM
same,GI50,[3],338 nM
same,TGI,[3],1240 nM
same,GI50,[4],1210 nM
same,TGI,[4],5940 nM
same,GI50,[5],1220 nM
same,TGI,[5],6520 nM
same,GI50,[6],991 nM
same,TGI,[6],5360 nM
same,GI50,[7],776 nM
same,TGI,[7],8030 nM
same,GI50,[8],1900 nM
same,TGI,[8],6130 nM
same,GI50,[9],1450 nM
same,TGI,[9],6650 nM
same,GI50,[10],2710 nM
same,TGI,[10],12500 nM
same,GI50,[11],841 nM
same,TGI,[11],2290 nM
same,GI50,[12],653 nM
same,TGI,[12],4140 nM
same,GI50,[13],649 nM
same,TGI,[13],2690 nM
same,GI50,[14],2770 nM
same,TGI,[14],9960 nM
same,GI50,[15],1900 nM
same,TGI,[15],4600 nM
same,GI50,[16],137 nM
same,TGI,[16],523 nM
same,GI50,[17],1620 nM
same,TGI,[17],4410 nM
same,GI50,[18],296 nM
same,TGI,[18],1140 nM
same,GI50,[19],3510 nM
same,TGI,[19],19000 nM
same,GI50,[20],2550 nM
same,TGI,[20],> 100000 nM
same,GI50,[21],1690 nM
same,TGI,[21],7020 nM
same,GI50,[22],449 nM
same,TGI,[22],2070 nM
same,GI50,[23],327 nM
same,TGI,[23],1300 nM
same,GI50,[24],390 nM
same,TGI,[24],2550 nM
same,GI50,[25],3490 nM
same,TGI,[25],13900 nM
same,GI50,[26],1510 nM
same,TGI,[26],9920 nM
same,GI50,[27],1490 nM
same,TGI,[27],3130 nM
same,GI50,[28],1500 nM
same,TGI,[28],5140 nM
same,GI50,[29],1140 nM
same,TGI,[29],6850 nM
same,GI50,[30],1730 nM
same,TGI,[30],8230 nM
same,GI50,[31],1670 nM
same,TGI,[31],6370 nM
same,GI50,[32],1660 nM
same,TGI,[32],6450 nM
same,GI50,[33],1750 nM
same,TGI,[33],8760 nM
same,GI50,[34],1190 nM
same,TGI,[34],5430 nM
same,GI50,[35],2440 nM
same,TGI,[35],6600 nM
same,GI50,[36],1530 nM
same,TGI,[36],4840 nM
same,GI50,[37],1910 nM
same,TGI,[37],10900 nM
same,GI50,[38],1050 nM
same,TGI,[38],3970 nM
same,GI50,[39],2400 nM
same,TGI,[39],10300 nM
same,GI50,[40],1940 nM
same,TGI,[40],3670 nM
same,GI50,[41],949 nM
same,TGI,[41],14800 nM
same,GI50,[42],667 nM
same,TGI,[42],2140 nM
same,GI50,[43],2270 nM
same,TGI,[43],8800 nM
same,GI50,[44],1830 nM
same,TGI,[44],27700 nM
same,GI50,[45],3060 nM
same,TGI,[45],17700 nM
same,GI50,[46],1610 nM
same,TGI,[46],7080 nM
same,GI50,[47],2050 nM
same,TGI,[47],6120 nM
same,GI50,[48],2140 nM
same,TGI,[48],5260 nM
same,GI50,[49],1080 nM
same,TGI,[49],4200 nM
same,GI50,[50],1120 nM
same,TGI,[50],3110 nM
same,GI50,[51],1070 nM
same,TGI,[51],13300 nM
same,GI50,[52],1290 nM
same,TGI,[52],3390 nM
same,GI50,[53],319 nM
same,TGI,[53],1520 nM
same,GI50,[54],1540 nM
same,TGI,[54],5300 nM
same,GI50,[55],4070 nM
same,TGI,[55],8740 nM
same,GI50,[56],1840 nM
same,TGI,[56],9170 nM
same,GI50,[57],2480 nM
same,TGI,[57],8790 nM
